Results: patent US20110288082A1, “METHODS AND COMPOSITIONS FOR INHIBITION OF THE TRANSITIONAL ENDOPLASMIC RETICULUM ATPASE” (priority 2010, published 2011)
Read-outs that look alike come from different tables or passages of the source.

How the values were obtained:
p97 = p97 (Homo sapiens, UniProt P55072); experiment: p97 ATPase assay (Kinase Glo Plus; biomol green for compounds that interfere with luciferase); assay type: biochemical
Protocol: Assay Buffer (20 μL of 2.5× concentration, where 1×=50 mM Tris pH 7.4, 20 mM MgCl2, 1 mM EDTA, 0.5 mM TCEP) was dispensed into each well of a 96 well plate. Purified p97 (25 μL of 50 μM) was diluted in 975 μL, of 1× Assay Buffer and 10 μL was dispensed in each well. Test compound (10 μL) or 5% DMSO (10 μL) was then added to each well and the plate was incubated at room temperature for 10 min. The ATPase assay was carried out by adding to each well 10 μL of 500 μM ATP (pH 7.5), incubating at room temperature for 60 min, and then adding 50 μL Kinase Glo Plus reagent (Promega) followed by a final 10 min incubation at room temperature in the dark. Luminescence was read on an Analyst AD (Molecular Devices). Compounds were assayed at a range of concentrations (0, 0.048, 0.24, 1.2, 6, 30 μM) in triplicate. The percent of remaining activity for each reaction was calculated using the following mathematical expression: ((Test Compound-High Control)/(Low Control-High Control))*100. Test_Compound is defined as wells containing test compound, Low_Control is defined as wells containing DMSO, High_Control is defined as wells containing no p97 protein. […] The result was expressed as mean +/− standard error. For assays with Myriad 12 and 19, 100 μL of biomol green reagent (Enzo Life Sciences) was added to each well instead of kinase Glo Plus (Promega) and absorbance at 630 nm was measured. This was done because these compounds interfered with luciferase activity. […]

[1] = tested on: p97-dependent Ub^G76V-GFP degradation in HeLa cells; experiment: Ub^G76V-GFP degradation (turn-over) assay; assay type: cell-based, human; details: Homo sapiens, HeLa
Protocol: Ub^G76V-GFP Degradation Assay
Two GFP images with 100 ms exposure time per well were acquired and the average GFP intensity per area of a HeLa cell was determined by using MetaXpress software. Mean GFP intensity of 300-500 cells was calculated using Excel. Normalized GFP intensity was calculated using the following formula: (Test compound−Background)/(Basal GFP intensity—Background). Where: Test compound is defined as Mean GFP intensity of Ub^G76V-GFP-expressing cells treated with the test compound. Background is defined as background GFP intensity of HeLa cells. Basal GFP intensity is defined as mean GFP intensity of Ub^G76V-GFP-expressing cells treated with DMSO. […] The percent of remaining k for each compound is calculated using the following formula: (Test compound/DMSO control)*100. Where: Test_compound is defined as k determined from wells containing test compound, DMSO control is defined as k determined from wells containing DMSO.

[2] = purified p97, ATP, 60 min room temperature, mean +/- standard error
[3] = read-out: IC50 (μM) Ub^G76V-GFP turn over, Ub^G76V-GFP-expressing HeLa cells, degradation rate constant k from 90 to 180 min, mean +/- standard error
[4] = read-out: IC50 (μM) Ub^G76V-GFP turn over, p97-dependent Ub^G76V-GFP degradation turn-over assay

p97, sequence (P55072 2-806 limits assumed): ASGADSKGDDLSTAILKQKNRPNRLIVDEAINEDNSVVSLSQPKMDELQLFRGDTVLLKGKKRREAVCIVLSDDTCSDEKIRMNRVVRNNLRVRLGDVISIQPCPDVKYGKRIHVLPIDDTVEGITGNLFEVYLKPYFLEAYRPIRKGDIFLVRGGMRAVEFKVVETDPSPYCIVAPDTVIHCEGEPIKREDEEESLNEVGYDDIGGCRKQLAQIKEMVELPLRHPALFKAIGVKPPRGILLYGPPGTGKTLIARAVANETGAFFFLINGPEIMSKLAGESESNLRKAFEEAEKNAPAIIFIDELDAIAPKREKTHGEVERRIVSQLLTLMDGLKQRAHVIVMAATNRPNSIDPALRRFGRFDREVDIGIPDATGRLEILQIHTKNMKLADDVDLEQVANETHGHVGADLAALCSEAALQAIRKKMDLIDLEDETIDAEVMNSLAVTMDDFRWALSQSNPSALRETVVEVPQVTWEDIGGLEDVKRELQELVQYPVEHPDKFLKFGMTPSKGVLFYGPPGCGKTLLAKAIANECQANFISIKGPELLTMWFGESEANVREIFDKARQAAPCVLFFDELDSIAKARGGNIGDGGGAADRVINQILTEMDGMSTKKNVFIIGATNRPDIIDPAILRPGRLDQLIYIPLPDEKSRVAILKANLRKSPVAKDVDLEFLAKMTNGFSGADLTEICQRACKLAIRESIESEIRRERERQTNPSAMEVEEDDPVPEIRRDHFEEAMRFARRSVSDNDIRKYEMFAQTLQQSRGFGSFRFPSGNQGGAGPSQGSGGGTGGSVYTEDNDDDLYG

Row | SMILES | IC50 (p97; [2]) | IC50 [1, 3] | IC50 (p97; p97 ATPase assay) | IC50 [1, 4]
1 | c1ccc(CNc2nc(N3CCCc4ccccc43)nc3ccccc23)cc1 [VII-1] | 4.4 ± 1.8 µM | 10 ± 2 µM | – | –
2 | COc1ccc(-c2nc(NCc3ccccc3)c3ccc(Cl)cc3n2)cc1 [I-34] | – | – | 25 ± 11 µM | 70 ± 30 µM
3 | COc1cccc2c(NCc3ccccc3)nc(N3CCN(C)c4ccccc43)nc12 [VII-12] | 3.1 ± 0.5 µM | 7.8 ± 0.7 µM | – | –
4 | c1ccc(CNc2nc(N3CCNc4ccccc43)nc3ccccc23)cc1 [VII-4] | 0.4 ± 0.05 µM | 6.3 ± 1 µM | – | –
5 | Cc1ccc(F)cc1Nc1nc(NCc2ccccc2)c2ccccc2n1 [V-6] | 0.8 ± 0.1 µM | 5 ± 1 µM | – | –
6 | COc1cccc2c(NCc3ccccc3N(C)C)nc(N3CCOc4ccccc43)nc12 [XII-9] | – | – | 47 ± 22 µM | 4.5 ± 0.5 µM
7 | Nc1nc(CCl)nc(N(c2ccccc2)c2ccccc2)n1 [XIII] | 13 ± 5 µM | 10 ± 2 µM | – | –
8 | COCCOc1cccc2c(NCc3ccccc3)nc(N3CCOc4ccccc43)nc12 [VII-14] | 0.6 ± 0.03 µM | 6.5 ± 0.7 µM | – | –
9 | Clc1cccc(CNc2nc(Nc3cccc(Cl)c3)nc3ccccc23)c1 [III-12] | 5 ± 1.2 µM | 15 ± 4 µM | – | –
10 | CC(Nc1nc(-c2ccccc2)nc2ccccc12)c1ccccc1 (centres unmarked) [Cpd I-29] | – | – | 27 ± 14 µM | 13 ± 1 µM
11 | COc1cccc2c(NCc3ccccc3)nc(Nc3nc4ccccc4s3)nc12 [XI-5] | 0.5 ± 0.2 µM | 14 ± 2 µM | – | –
12 | COc1cccc2c(NCc3ccccc3)nc(N3CCN(C(C)=O)c4ccccc43)nc12 [VII-13] | 2.7 ± 0.6 µM | 8 ± 1 µM | – | –
13 | Clc1ccc2nc(NCc3ccccc3)nc(NCc3ccccc3)c2c1 [VI-3] | 1.6 ± 0.4 µM | 6.6 ± 0.9 µM | – | –
14 | Oc1cccc2c(NCc3ccccc3)nc(N3CCOc4ccccc43)nc12 [VII-7] | 1.2 ± 0.3 µM | 7.7 ± 1.7 µM | – | –
15 | Cc1ccc(-c2nc(NC(C)c3ccccc3)c3ccccc3n2)cc1 (centres unmarked) [I-30] | 7 ± 4 µM | 17 ± 4 µM | – | –
16 | Fc1ccc(CNc2nc(-c3ccc(Cl)cc3)nc3ccccc23)cc1 [I-23] | 8 ± 0.2 µM | 20 ± 5 µM | – | –
17 | Fc1cccc2nc(NCc3ccccc3)nc(NCc3ccccc3)c12 [VI-2] | 1.2 ± 0.3 µM | 13 ± 2 µM | – | –
18 | Clc1ccccc1CNc1nc(NCc2ccccc2)c2ccccc2n1 [IV-7] | 5.3 ± 1.2 µM | 2.9 ± 0.9 µM | – | –
19 | CC(C)Nc1nc(Nc2cccc(Cl)c2)nc2ccccc12 [XLII] | – | – | > 30 µM | 11 ± 2 µM
20 | Cc1ccc(Nc2nc(NCc3ccccc3)c3ccccc3n2)cc1 [II-2] | 2.2 ± 0.4 µM | 6.3 ± 1.4 µM | – | –
21 | CCCCc1cccc2c(NCc3ccccc3)nc(N3CCOc4ccccc43)nc12 [VII-15] | – | – | 2.63 ± 0.7 µM | 28 ± 3 µM
22 | Clc1cccc(Nc2nc(NCc3ccccc3Br)c3ccccc3n2)c1 [III-9] | 4 ± 1.7 µM | 12 ± 5 µM | – | –

Row | SMILES | IC50 (p97; [2]) | IC50 [1, 3] | IC50 (p97; p97 ATPase assay) | IC50 [1, 4]
23 | Clc1cccc2nc(NCc3ccccc3)nc(NCc3ccccc3)c12 [VI-1] | 2.2 ± 0.7 µM | 16 ± 2 µM | – | –
24 | COc1cccc2c(NCc3ccccc3)nc(-n3c(=O)oc4ccccc43)nc12 [VII-17] | 0.11 ± 0.03 µM | 5 ± 1 µM | – | –
25 | Clc1ccc2c(NCc3ccccc3)nc(NCc3ccccc3)nc2c1 [VI-12] | 5.5 ± 0.9 µM | 6.3 ± 0.9 µM | – | –
26 | Brc1ccc(CNc2nc(NCc3ccccc3)c3ccccc3n2)cc1 [IV-4] | 4.3 ± 0.9 µM | 3.9 ± 0.3 µM | – | –
27 | COc1cccc2c(NCc3ccccc3)nc(NC(N)=O)nc12 [XI-3] | – | – | 49 ± 10 µM | 108 ± 31 µM
28 | c1ccc(CNc2nc(N3CCOc4ccccc43)nc3c2CCCC3)cc1 [VIII] | 0.11 ± 0.03 µM | 3.5 ± 0.4 µM | – | –
29 | COc1cccc2c(N3CCOc4ccccc43)nc(N3CCOc4ccccc43)nc12 [XII-11] | – | – | > 30 µM | 8.1 ± 1.8 µM
30 | c1ccc(CNc2nc(N3CCc4ccccc43)nc3ccccc23)cc1 [VII-2] | 2 ± 0.5 µM | 11 ± 3 µM | – | –
31 | CC(Nc1nc(N2CCOCC2)nc2ccccc12)c1ccccc1 (centres unmarked) [XLVI] | – | – | 34 ± 10 µM | 36 ± 0.3 µM
32 | N#Cc1ccc2c(NCc3ccccc3)nc(NCc3ccccc3)nc2c1 [VI-8] | – | – | 25 ± 10 µM | 21 ± 3 µM
33 | COc1cccc2c(NCc3ccc(F)cc3)nc(N3CCOc4ccccc43)nc12 [XII-4] | 1.9 ± 0.4 µM | 3.7 ± 0.6 µM | – | –
34 | Fc1ccccc1CNc1nc(NCc2ccccc2)c2ccccc2n1 [IV-8] | 2.9 ± 0.4 µM | 2.8 ± 0.4 µM | – | –
35 | Cc1ccc(CNc2nc(Nc3cccc(Cl)c3)nc3ccccc23)cc1 [III-1] | 1.4 ± 0.3 µM | 12 ± 2 µM | – | –
36 | c1ccc(CNc2nc(N3CCN(Cc4ccccc4)CC3)nc3ccccc23)cc1 [XXIII] | – | – | 33 ± 8 µM | 12 ± 1 µM
37 | COc1cccc(CNc2nc(Nc3cccc(Cl)c3)nc3ccccc23)c1 [III-15] | 1 ± 0.1 µM | 9.9 ± 1.6 µM | – | –
38 | Clc1cc(Cl)cc(Nc2nc(NCc3ccccc3)c3ccccc3n2)c1 [II-19] | 8.2 ± 0.3 µM | 13 ± 1 µM | – | –
39 | Clc1cccc(Nc2nc(NCc3cccc(Br)c3)c3ccccc3n2)c1 [III-14] | 3.7 ± 0.9 µM | 9.9 ± 2 µM | – | –
40 | Clc1ccc(-c2nc(NCc3ccccc3)c3ccccc3n2)cc1 [I-6] | 5.5 ± 1.9 µM | 20 ± 3 µM | – | –
41 | c1ccc(CNc2nc(N3CCOc4ccccc43)nc3ccccc23)cc1 [VII-3] | 0.6 ± 0.2 µM | 7 ± 1.9 µM | – | –
42 | O=[N+]([O-])c1cccc(Nc2nc(NCc3ccccc3)c3ccccc3n2)c1 [II-22] | 5.2 ± 0.5 µM | 19 ± 2 µM | – | –
43 | Cc1cc(F)cc(Nc2nc(NCc3ccccc3)c3ccccc3n2)c1 [V-3] | 0.7 ± 0.05 µM | 5.4 ± 0.8 µM | – | –
44 | COc1cccc2c(NCc3ccccc3)nc(NCc3ccccc3)nc12 [VI-5, N2,N4-dibenzyl-8-methoxyquinazoline-2,4-diamine] | 0.6 ± 0.06 µM | 10 ± 2 µM | – | –

Row | SMILES | IC50 (p97; [2]) | IC50 [1, 3] | IC50 (p97; p97 ATPase assay) | IC50 [1, 4]
45 | Ic1cccc(Nc2nc(NCc3ccccc3)c3ccccc3n2)c1 [II-21] | 5.2 ± 1.9 µM | 36 ± 4 µM | – | –
46 | c1ccc(CNc2ccnc(N3CCOc4ccccc43)n2)cc1 [XX] | – | – | 2.9 ± 0.2 µM | 27 ± 3 µM
47 | Cc1c(F)cccc1Nc1nc(NCc2ccccc2)c2ccccc2n1 [V-2] | 0.9 ± 0.1 µM | 3.7 ± 0.8 µM | – | –
48 | COc1cccc2c(NCc3ccccc3)nc(NCc3cncs3)nc12 [XI-15] | 11 ± 1 µM | 10 ± 3 µM | – | –
49 | COc1cccc2c(NCc3ccccc3)nc(N3CCOc4ccccc43)nc12 [VII-6] | 0.2 ± 0.02 µM | 3.3 ± 0.4 µM | – | –
50 | Clc1cccc(CNc2nc(NCc3ccccc3)c3ccccc3n2)c1 [IV-12] | 2.7 ± 0.1 µM | 2.5 ± 0.4 µM | – | –
51 | Cc1ccc2c(NCc3ccccc3)nc(NCc3ccccc3)nc2c1 [VI-6] | 2.2 ± 0.4 µM | 6.1 ± 1.6 µM | – | –
52 | COc1ccc(-c2nc(NCc3ccc(F)cc3)c3ccccc3n2)cc1 [I-17] | 7.8 ± 0.4 µM | 9.8 ± 3 µM | – | –
53 | Brc1ccccc1Nc1nc(NCc2ccccc2)c2ccccc2n1 [II-10] | – | – | 64 ± 24 µM | 13 ± 2 µM
54 | Brc1ccccc1CNc1nc(NCc2ccccc2)c2ccccc2n1 [IV-9] | 2 ± 0.3 µM | 3.8 ± 0.7 µM | – | –
55 | O=[N+]([O-])c1ccc(-c2nc(NCc3ccccc3)c3ccccc3n2)cc1 [I-8] | 11 ± 6 µM | 19 ± 7 µM | – | –
56 | Clc1ccc(-c2nc(NCc3ccccc3)c3ccccc3n2)cc1Cl [I-11] | 7.1 ± 0.4 µM | 37 ± 6 µM | – | –
57 | COc1cccc2c(NCc3ccccc3)nc(-n3c(N)nc4ccccc43)nc12 [VII-16] | 0.11 ± 0.03 µM | 0.9 ± 0.1 µM | – | –
58 | Fc1ccc2nc(NCc3ccccc3)nc(NCc3ccccc3)c2c1 [VI-15] | 4.7 ± 0.4 µM | 8.2 ± 1.5 µM | – | –
59 | c1ccc(CNc2nc(N3CCOc4ccccc43)nc3ccsc23)cc1 [IX] | 0.4 ± 0.1 µM | 6.4 ± 1 µM | – | –
60 | Fc1ccc(CNc2nc(Nc3cccc(Cl)c3)nc3ccccc23)cc1 [III-3] | 1.5 ± 0.3 µM | 5.7 ± 1.3 µM | – | –
61 | COc1c(F)cccc1Nc1nc(NCc2ccccc2)c2ccccc2n1 [V-4] | 1.7 ± 0.5 µM | 12 ± 3 µM | – | –
62 | COc1cccc2c(NCc3ccccc3)nc(Nc3ccccc3O)nc12 [XI-10] | 2.6 ± 0.4 µM | 2.8 ± 0.5 µM | – | –
63 | COc1cccc2c(NCc3ccccc3)nc(N3CCOCC3)nc12 [XI-2] | – | – | 31 ± 7 µM | 47 ± 9 µM
64 | Clc1cccc(CNc2nc(-c3ccccc3)nc3ccccc23)c1 [Cpd I-12] | – | – | 28 ± 9 µM | 17 ± 4 µM
